Assay results reported in ChEMBL document CHEMBL6177930, “2-(4-Bromobenzyl) tethered 4-amino aryl/alkyl-5,6,7,8-tetrahydrobenzo[4,5]thieno[2,3-d]pyrimidines: design, synthesis, anticancer assessment via dual topoisomerase-I/II inhibition, and in silico studies” (RSC Med Chem, 2025).
Calls of active or inactive are those of the source. No cut-off for these calls is given here.

Tests used:
MCF7 [1] = experiment: Induction of cell cycle arrest in human MCF7 cells assessed as accumulation of cells at G2/M phase measured after 24 hrs by PI staining based flow cytometry analysis (reference value: 14.2%); assay type: functional
MDA-MB-231 = experiment: Antiproliferative activity against human MDA-MB-231 cells assessed as inhibition of cell growth at 10 uM measured after 48 to 72 hrs by MTT assay relative to control; assay type: functional; details: time 48-72 hrs
FaDu [2] = experiment: Induction of morphological changes in human FaDu cells assessed as appearance of detached cells at 2 to 5 uM incubated for 48 hrs by bright field microscope based analysis; assay type: functional, cell-based; details: dose 2-5 µM
FaDu [3] = experiment: Inhibition of colony formation in human FaDu cells assessed as reduction in colony formation at 1 to 5 uM incubated for 48 hrs crystal violet staining based analysis (reference value: 62.58%); assay type: functional; details: dose 1-5 µM
FaDu [4] = experiment: Induction of morphological changes in human FaDu cells assessed as reduction in cell density at 1 uM incubated for 48 hrs by bright field microscope based analysis; assay type: functional
MCF7 [5] = experiment: Induction of cell cycle arrest in human MCF7 cells assessed as accumulation of cells at S phase measured after 24 hrs by PI staining based flow cytometry analysis (reference value: 24.7%); assay type: functional
[6] = molecular target: T1, Prostaglandin G/H synthase 1 (Ovis aries) (UniProt P05979); experiment: Inhibition of ovine COX-1 at 10 uM relative to control
T1 sequence (whole entry): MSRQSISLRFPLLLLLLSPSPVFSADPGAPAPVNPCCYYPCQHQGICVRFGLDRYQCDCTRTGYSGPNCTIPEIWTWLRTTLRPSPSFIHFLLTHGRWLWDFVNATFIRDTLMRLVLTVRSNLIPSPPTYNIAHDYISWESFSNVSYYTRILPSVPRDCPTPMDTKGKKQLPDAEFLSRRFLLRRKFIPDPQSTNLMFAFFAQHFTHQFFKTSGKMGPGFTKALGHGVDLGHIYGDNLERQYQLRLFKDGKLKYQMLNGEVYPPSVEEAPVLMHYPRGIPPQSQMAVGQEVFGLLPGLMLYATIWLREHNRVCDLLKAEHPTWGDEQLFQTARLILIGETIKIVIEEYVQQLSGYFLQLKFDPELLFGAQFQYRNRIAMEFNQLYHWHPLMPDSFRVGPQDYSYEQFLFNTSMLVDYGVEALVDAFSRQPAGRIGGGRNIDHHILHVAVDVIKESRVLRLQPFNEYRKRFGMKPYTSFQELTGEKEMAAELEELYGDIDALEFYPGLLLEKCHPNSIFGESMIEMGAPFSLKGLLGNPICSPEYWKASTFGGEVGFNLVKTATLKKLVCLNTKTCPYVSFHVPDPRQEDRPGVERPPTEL

A549 = experiment: Antiproliferative activity against human A549 cells assessed as inhibition of cell growth at 10 uM measured after 48 to 72 hrs by MTT assay relative to control; assay type: functional; details: time 48-72 hrs
[7] = Antiproliferative activity against human HCC cells assessed as inhibition of cell growth at 10 uM measured after 48 to 72 hrs by MTT assay relative to control; assay type: functional; details: time 48-72 hrs
FaDu [8] = experiment: Induction of apoptosis in human FaDu cells assessed as nuclear changes at 1 to 5 uM by DAPI staining based analysis; assay type: functional, cell-based; details: dose 1-5 µM
FaDu [9] = experiment: Induction of morphological changes in human FaDu cells assessed as appearance of detached cells at 1 uM incubated for 48 hrs by bright field microscope based analysis; assay type: functional, cell-based
FaDu [10] = experiment: Antiproliferative activity against human FaDu cells assessed as inhibition of cell growth measured after 72 hrs by MTT assay; assay type: functional, cell-based
MCF7 [11] = experiment: Induction of cell cycle arrest in human MCF7 cells assessed as accumulation of cells at G0/G1 phase measured after 24 hrs by PI staining based flow cytometry analysis (reference value: 45.2%); assay type: functional
FaDu [12] = experiment: Inhibition of cell migration in human FaDu cells assessed as reduction in wound closure at 5 uM measured after 48 hrs by bright field microscopic analysis relative to control; assay type: functional
FaDu [13] = experiment: Antiproliferative activity against human FaDu cells assessed as inhibition of cell growth at 10 uM measured after 48 to 72 hrs by MTT assay relative to control; assay type: functional; details: time 48-72 hrs
FaDu [14] = experiment: Induction of apoptosis in human FaDu cells assessed as apoptotic bodies at 1 to 5 uM by DAPI staining based analysis; assay type: functional, cell-based; details: dose 1-5 µM
MCF7 [15] = experiment: Inhibition of oxidative stress in human MCF7 cells assessed as reduction in ROS production incubated for 24 hrs by DCFH-DA staining based flow cytometry analysis; assay type: functional, cell-based
FaDu [16] = experiment: Induction of morphological changes in human FaDu cells assessed as cell membrane blebbing at 2 to 5 uM incubated for 48 hrs by bright field microscope based analysis; assay type: functional; details: dose 2-5 µM

inhibition [6]: 46.5%
Compound: Brc1ccc(Cc2nc(N3CCN(c4ccncc4)CC3)c3c4c(sc3n2)CCCC4)cc1
Activity (MCF7 [1]): 52.8% | inhibition at 10 µM (MDA-MB-231): 6.27% | Activity (FaDu [2]): Active | inhibition (INH) (FaDu [3]): 19.35% | Activity (FaDu [4]): Active | Activity (MCF7 [5]): 17.8% | inhibition at 10 µM (A549): 39.2% | inhibition at 10 µM [7]: 2.28% | Activity (FaDu [8]): Active | Activity (FaDu [9]): Active | IC50 (FaDu [10]): 1730 nM | Activity (FaDu [10]; dose 0.5-50 µM): Dose-dependent-effect | Activity (MCF7 [11]): 20.2% | inhibition at 5 µM (FaDu [12]): 24.4% | inhibition at 10 µM (FaDu [13]): 83.5% | Activity (FaDu [14]): Active | inhibition (MCF7 [15]): Active | Activity (FaDu [16]): Active
